The source made the active and inactive calls. Bounds are passed on as bounds.

The results in this text go back to ChEMBL document CHEMBL1201862, “PubChem BioAssay data set” (2004).

Assay [1] in a line: luciferase reporter signal suppression in cells – H4 neuroglioma cells, luminescence, dose response (AID 1990). Format: functional, cell-based. For orientation: In a reporter assay the amount or activity of a reporter protein is the signal.
A short description of assay [2]: Luminescence Cell-Based Dose Response HTS to Identify Inhibitors of 5'UTR Stem-Loop Driven Prion Protein mRNA Translation in H4 Neuroglioblastoma Cells. [Related pubchem assays: 1827 (Project Summary), 1813 (Primary HTS)]. It is filed as functional.
Assay [3] in a line: alpha-synuclein stem-loop luciferase translation blockers – H4 neuroglioma cells, luminescence, confirmation (AID 1988). Format: functional, cell-based.
Assay [4] concerns the target Mothers against decapentaplegic homolog 3 (Homo sapiens, UniProt P84022). As to the kind of experiment: inhibitors of SMAD-driven TGF-beta signaling – dose response (AID 715). It is filed as functional.
The target of assay [5] is T1, Estrogen receptor beta (Homo sapiens, UniProt Q92731).
For assay [6], the target named is T1, Estrogen receptor beta. Put plainly: blockers of SRC-3 recruitment to ERβ – biochemical, ELISA, streptavidin-HRP readout, orthogonal assay, confirmation (AID 1060). A general note: In an ELISA, binding on a coated surface is turned into a signal by an enzyme label.
Assay [7] deals with Protein-tyrosine kinase 2-beta (Homo sapiens, UniProt Q14289).
In assay [8] the target is Peroxisome proliferator-activated receptor gamma/Nuclear receptor corepressor 2 (Homo sapiens, UniProt P37231+Q9Y618). As to the kind of experiment: Counterscreen for NR2E3 inverse agonists: TR-FRET-based biochemical high throughput dose response assay to identify inverse agonists of the interaction between peroxisome proliferator-activated receptor gamma (PPARg) and nuclear receptor co-repressor 2 (NCOR2). Format: functional. In general terms: Counterscreens check selectivity or assay interference.

Assay [9] addresses Photoreceptor-specific nuclear receptor (Homo sapiens, UniProt Q9Y5X4). Put plainly: ligands suppressing NR2E3 nuclear receptor activity – biochemical, TR-FRET, dose response (AID 463256). It is filed as functional.
Assay [10] addresses T2, Apoptotic protease-activating factor 1 (Homo sapiens, UniProt O14727).
T2 sequence (O14727 whole entry): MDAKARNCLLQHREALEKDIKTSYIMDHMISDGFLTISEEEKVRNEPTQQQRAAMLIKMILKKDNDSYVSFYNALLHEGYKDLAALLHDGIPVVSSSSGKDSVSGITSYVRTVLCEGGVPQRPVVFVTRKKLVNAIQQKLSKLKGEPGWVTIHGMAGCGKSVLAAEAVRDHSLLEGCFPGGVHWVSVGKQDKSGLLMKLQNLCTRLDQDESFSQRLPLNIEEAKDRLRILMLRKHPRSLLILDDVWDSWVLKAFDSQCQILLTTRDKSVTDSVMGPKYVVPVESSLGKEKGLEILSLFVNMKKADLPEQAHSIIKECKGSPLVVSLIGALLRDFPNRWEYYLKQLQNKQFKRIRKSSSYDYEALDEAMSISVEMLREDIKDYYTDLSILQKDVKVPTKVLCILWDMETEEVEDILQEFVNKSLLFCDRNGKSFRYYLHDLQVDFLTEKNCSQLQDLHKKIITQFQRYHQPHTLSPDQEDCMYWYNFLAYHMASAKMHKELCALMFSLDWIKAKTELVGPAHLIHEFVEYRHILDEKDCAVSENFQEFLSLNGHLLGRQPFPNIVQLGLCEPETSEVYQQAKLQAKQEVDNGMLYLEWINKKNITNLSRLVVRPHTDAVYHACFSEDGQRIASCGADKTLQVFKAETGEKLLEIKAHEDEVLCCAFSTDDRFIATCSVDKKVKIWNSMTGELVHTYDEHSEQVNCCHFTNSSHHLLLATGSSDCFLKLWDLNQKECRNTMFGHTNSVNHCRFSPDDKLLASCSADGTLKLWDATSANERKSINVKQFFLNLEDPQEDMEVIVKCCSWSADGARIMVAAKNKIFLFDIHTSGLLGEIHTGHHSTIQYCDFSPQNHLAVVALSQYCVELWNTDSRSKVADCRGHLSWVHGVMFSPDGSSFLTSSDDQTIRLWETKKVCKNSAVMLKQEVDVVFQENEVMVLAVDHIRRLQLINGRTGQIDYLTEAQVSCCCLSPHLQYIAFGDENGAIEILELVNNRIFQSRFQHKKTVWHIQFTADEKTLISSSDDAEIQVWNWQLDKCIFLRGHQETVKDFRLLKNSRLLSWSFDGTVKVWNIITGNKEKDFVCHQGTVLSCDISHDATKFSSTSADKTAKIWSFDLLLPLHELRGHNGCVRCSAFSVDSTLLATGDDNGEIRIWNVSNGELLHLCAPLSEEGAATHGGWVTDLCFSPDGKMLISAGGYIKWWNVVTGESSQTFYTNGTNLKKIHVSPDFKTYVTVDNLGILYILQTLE
It is filed as functional.

Assay [11] concerns the target T2, Apoptotic protease-activating factor 1. As to the kind of experiment: SAR analysis of small molecule inhibitors of Apaf-1 in a Fluorescent assay. It is filed as functional. The settings on record: read-out: IC50_Mean.
Assay [12] in a line: viability loss in HEK293T cells – cell-based, cherry-picks, cytotoxicity control for HIV Vif inhibitor project, dose response (AID 652208). Format: functional.
Assay [13] deals with HEK293. Put plainly: cells. The settings on record: Homo sapiens.
In assay [14] the test system is HEK293. As to the kind of experiment: cells. The settings on record: Homo sapiens. The source holds these as a separate data set.
For assay [15], the target named is Serine/threonine-protein kinase pim-1 (Homo sapiens, UniProt P11309). Format: functional.
For assay [16], the target named is Cell division cycle 7-related protein kinase (Homo sapiens, UniProt O00311). It is filed as functional.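 Also: value obtained from a kinome-wide kinase panel.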
For assay [17], the target named is Homeodomain-interacting protein kinase 2 (Homo sapiens, UniProt Q9H2X6). Format: functional.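 Also: measured within a kinome-wide kinase profiling panel, HIPK2 being one panel member.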
The target of assay [18] is Interleukin-1 receptor-associated kinase 4 (Homo sapiens, UniProt Q9NWZ3). It is filed as functional.
For assay [19], the target named is Glycogen synthase kinase-3 beta (Homo sapiens, UniProt P49841). It is filed as functional.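 Also: value comes from a broad kinome profiling panel, with GSK3B as the panel member.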
For assay [20], the target named is cAMP-dependent protein kinase catalytic subunit alpha (Homo sapiens, UniProt P17612). It is filed as functional.
The target in assay [21] is Dual specificity protein kinase CLK4 (Homo sapiens, UniProt Q9HAZ1). It is filed as functional.
The target of assay [22] is Mitogen-activated protein kinase kinase kinase kinase 4 (Homo sapiens, UniProt O95819). Format: functional.
The target of assay [23] is ALK tyrosine kinase receptor (Homo sapiens, UniProt Q9UM73). It is filed as functional.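 Also: ALK tested as one member of a kinase panel screen.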
For assay [24], the target named is Mitogen-activated protein kinase 8 (Homo sapiens, UniProt P45983). It is filed as functional.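 Also: value comes from one member of a kinome-wide kinase profiling panel.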
In assay [25] the target is Fibroblast growth factor receptor 1 (Homo sapiens, UniProt P11362). Format: functional.
For assay [26], the target named is High affinity nerve growth factor receptor (Homo sapiens, UniProt P04629). Format: functional.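 Also: NTRK1 tested as one member of a kinome-wide profiling panel.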
Assay [27] has as its target Hepatocyte growth factor receptor (Homo sapiens, UniProt P08581). Format: functional.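 Also: kinase panel profiling across the kinome, with MET as the panel member.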
Assay [28] addresses Receptor-type tyrosine-protein kinase FLT3 (Homo sapiens, UniProt P36888). It is filed as functional.
Assay [29] deals with Dual specificity tyrosine-phosphorylation-regulated kinase 1B (Homo sapiens, UniProt Q9Y463). As to the kind of experiment: Navigating the Kinome. Panel member name: DYRK1B. It is filed as functional.
Assay [30] concerns the target Cyclin-dependent kinase 19 (Homo sapiens, UniProt Q9BWU1). Put plainly: Navigating the Kinome. Panel member name: CDC2L6. It is filed as functional.

Sequence of Glycogen synthase kinase-3 beta (P49841 whole entry): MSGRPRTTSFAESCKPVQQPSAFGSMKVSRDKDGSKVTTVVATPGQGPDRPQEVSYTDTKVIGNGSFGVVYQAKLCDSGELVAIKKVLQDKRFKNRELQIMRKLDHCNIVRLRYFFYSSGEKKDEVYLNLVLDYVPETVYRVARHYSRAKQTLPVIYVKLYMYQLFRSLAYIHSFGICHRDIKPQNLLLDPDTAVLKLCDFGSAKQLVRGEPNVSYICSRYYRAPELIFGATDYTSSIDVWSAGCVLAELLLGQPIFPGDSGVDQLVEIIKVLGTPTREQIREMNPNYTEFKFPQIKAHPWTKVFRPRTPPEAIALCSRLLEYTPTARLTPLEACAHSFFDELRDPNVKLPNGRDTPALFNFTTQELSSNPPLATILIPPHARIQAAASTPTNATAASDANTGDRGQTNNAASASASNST
Sequence of Serine/threonine-protein kinase pim-1 (P11309 whole entry): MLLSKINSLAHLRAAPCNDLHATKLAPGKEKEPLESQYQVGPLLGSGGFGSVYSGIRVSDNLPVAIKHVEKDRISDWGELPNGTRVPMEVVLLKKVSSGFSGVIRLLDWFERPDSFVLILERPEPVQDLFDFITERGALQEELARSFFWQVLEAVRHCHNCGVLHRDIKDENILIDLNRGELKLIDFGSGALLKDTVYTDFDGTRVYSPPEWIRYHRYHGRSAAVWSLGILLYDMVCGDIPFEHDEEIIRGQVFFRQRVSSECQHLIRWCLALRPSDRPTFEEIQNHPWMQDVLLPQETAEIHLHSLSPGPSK
T1 sequence (Q92731 whole entry): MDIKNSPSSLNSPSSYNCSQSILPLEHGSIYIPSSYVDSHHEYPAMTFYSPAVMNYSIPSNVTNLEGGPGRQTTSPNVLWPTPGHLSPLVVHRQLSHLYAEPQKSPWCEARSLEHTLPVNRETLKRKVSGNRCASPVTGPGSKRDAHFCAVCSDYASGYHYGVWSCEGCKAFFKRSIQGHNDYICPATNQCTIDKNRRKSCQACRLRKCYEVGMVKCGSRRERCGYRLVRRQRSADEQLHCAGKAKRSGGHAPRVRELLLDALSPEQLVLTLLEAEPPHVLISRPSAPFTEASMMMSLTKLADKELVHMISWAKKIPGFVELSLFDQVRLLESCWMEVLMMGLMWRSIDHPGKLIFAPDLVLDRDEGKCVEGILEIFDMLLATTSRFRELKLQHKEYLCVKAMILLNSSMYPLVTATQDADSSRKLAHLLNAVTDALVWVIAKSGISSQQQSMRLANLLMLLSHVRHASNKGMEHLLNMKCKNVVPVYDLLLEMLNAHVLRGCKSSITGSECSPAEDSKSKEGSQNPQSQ
Sequence of Cell division cycle 7-related protein kinase (O00311 whole entry): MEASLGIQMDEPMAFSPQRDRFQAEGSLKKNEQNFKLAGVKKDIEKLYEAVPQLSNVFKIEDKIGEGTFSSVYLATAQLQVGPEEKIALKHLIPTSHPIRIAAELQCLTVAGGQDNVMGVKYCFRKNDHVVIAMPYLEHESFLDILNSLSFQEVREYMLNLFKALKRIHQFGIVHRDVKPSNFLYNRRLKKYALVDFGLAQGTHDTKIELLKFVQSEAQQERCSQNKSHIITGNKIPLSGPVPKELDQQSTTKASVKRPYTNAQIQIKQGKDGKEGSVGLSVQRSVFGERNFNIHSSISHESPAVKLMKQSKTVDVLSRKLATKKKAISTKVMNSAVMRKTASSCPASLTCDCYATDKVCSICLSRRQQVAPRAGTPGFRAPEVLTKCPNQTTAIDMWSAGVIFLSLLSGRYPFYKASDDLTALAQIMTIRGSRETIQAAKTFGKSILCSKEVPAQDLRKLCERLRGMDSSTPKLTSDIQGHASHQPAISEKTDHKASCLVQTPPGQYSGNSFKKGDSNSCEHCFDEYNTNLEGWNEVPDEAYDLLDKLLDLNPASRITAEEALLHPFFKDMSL
Sequence of ALK tyrosine kinase receptor (Q9UM73 whole entry): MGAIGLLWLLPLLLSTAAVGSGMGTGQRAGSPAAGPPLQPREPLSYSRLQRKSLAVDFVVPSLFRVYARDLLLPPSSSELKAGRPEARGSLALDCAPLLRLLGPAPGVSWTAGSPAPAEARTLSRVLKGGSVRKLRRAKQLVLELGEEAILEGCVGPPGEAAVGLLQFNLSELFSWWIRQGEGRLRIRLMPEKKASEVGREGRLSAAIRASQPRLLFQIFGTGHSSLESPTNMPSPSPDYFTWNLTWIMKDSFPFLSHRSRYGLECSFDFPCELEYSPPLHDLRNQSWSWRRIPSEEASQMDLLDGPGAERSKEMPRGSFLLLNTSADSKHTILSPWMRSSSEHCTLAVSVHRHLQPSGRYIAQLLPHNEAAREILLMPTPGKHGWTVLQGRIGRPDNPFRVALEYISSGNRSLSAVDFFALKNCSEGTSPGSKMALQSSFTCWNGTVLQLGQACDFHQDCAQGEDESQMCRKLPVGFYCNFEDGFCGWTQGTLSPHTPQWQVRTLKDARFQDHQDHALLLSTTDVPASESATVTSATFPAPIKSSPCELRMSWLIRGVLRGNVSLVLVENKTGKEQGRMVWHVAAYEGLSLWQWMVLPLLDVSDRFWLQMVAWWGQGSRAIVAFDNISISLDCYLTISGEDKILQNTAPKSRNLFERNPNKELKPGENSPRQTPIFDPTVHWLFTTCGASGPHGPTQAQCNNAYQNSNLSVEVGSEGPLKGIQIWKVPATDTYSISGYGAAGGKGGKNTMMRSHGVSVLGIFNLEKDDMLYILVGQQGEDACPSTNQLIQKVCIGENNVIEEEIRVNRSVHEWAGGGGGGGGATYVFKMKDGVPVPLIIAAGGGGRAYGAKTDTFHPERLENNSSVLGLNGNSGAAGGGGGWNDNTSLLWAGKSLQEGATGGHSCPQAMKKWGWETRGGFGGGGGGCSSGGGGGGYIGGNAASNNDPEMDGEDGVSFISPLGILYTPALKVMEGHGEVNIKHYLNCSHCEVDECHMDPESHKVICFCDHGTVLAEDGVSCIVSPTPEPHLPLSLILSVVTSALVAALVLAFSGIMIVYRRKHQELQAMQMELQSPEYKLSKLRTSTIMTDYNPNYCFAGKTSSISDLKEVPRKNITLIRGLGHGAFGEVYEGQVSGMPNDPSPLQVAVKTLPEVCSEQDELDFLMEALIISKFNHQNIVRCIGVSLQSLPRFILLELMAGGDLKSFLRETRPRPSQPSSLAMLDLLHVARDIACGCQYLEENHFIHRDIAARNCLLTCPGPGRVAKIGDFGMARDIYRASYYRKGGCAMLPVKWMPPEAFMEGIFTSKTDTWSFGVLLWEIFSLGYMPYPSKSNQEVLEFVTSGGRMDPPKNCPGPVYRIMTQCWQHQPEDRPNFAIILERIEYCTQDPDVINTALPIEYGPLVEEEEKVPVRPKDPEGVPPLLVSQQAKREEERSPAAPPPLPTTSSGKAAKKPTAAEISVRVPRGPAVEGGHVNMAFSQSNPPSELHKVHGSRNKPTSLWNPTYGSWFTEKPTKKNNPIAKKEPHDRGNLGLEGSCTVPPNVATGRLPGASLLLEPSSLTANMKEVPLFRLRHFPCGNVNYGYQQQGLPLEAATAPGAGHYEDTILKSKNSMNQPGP
Sequence of Dual specificity protein kinase CLK4 (Q9HAZ1 whole entry): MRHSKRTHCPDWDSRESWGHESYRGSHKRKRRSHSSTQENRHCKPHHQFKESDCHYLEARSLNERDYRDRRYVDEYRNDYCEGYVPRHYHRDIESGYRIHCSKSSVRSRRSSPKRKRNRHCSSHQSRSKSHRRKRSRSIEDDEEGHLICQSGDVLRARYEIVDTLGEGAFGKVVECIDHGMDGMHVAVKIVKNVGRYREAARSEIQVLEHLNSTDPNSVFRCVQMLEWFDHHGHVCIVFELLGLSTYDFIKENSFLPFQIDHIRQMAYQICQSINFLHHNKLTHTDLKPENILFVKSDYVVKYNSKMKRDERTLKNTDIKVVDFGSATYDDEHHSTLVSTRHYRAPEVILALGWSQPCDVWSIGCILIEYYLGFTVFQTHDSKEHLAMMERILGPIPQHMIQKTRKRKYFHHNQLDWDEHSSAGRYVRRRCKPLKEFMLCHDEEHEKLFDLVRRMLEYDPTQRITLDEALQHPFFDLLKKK
Sequence of Mitogen-activated protein kinase 8 (P45983 whole entry): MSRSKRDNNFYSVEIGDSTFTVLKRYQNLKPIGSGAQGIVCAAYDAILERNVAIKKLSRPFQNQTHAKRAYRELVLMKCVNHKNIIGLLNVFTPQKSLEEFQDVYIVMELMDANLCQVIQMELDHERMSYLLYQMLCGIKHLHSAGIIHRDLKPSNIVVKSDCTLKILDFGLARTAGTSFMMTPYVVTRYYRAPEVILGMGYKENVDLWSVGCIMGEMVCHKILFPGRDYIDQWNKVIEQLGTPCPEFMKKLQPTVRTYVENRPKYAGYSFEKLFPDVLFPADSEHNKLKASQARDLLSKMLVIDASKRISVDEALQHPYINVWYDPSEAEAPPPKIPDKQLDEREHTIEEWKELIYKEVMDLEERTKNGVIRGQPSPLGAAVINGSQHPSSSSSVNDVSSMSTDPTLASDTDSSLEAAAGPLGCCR
Sequence of Photoreceptor-specific nuclear receptor (Q9Y5X4 whole entry): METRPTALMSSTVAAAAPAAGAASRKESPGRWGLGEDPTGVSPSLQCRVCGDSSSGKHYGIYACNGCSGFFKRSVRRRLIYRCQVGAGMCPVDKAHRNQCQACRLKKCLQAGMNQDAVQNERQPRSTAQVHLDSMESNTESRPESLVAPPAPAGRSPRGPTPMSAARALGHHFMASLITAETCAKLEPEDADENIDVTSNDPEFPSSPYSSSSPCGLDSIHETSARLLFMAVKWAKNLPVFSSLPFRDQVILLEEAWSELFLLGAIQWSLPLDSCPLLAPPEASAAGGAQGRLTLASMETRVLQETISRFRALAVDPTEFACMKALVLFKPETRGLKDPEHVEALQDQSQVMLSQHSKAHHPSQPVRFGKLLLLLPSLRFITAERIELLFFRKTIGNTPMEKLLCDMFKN

For orientation: EC50 means the concentration at which the effect is half-maximal. Usually AC50 stands for the midpoint of the concentration-response curve, whichever way the signal moves. As for `O=C(Nc1ccc(-c2nc3cc(NC(=O)c4cccs4)ccc3[nH]2)cc1)c1cccs1`, the EC50 in [1] is 225 nM (active); in assay [2], 40100 nM (active); in assay [3], 275 nM (active); in [13] it was > 59600 nM (inactive); in [14], > 59600 nM (inactive). Further, the IC50 in assay [4] was 64400 nM (not active); in assay [5], 2610 nM (active); in assay [6], > 109000 nM (not active); in assay [7] it was 3970 nM (active); in assay [8] it was 10500 nM (not active); in assay [9], 9360 nM (active). Further, the IC50 was 8210 nM (active) in assay [10] and 8370 nM (active) in [11]. In addition, in [12], the AC50 is 23100 nM (active).
The term Ki denotes a dissociation constant, usually derived from enzyme kinetics or from competition with a known ligand. In the case of `CCCCNc1cc(-c2ccncc2)cc2[nH]nc(N)c12`, the Ki was 2510 nM (active) in assay [15]; 12.6 nM (active) in assay [16]; 398 nM (active) in [17]; 79.4 nM (active) in assay [18]; 398 nM (active) in [19]; 398 nM (active) in assay [20]. Also, the Ki in assay [21] is 3.16 nM (active); in assay [22], 316 nM (active).
`CS(=O)(=O)c1cccc(-c2cnn3c(C(N)=O)cc(-c4ccccc4)nc23)c1`: the Ki in [23] was 5010 nM (active); in assay [24] it was 3980 nM (active); in assay [15], 3980 nM (active); in assay [25], 2000 nM (active); in [26], 2000 nM (active); in assay [27] it was 2510 nM (active). Moreover, the Ki was 2510 nM (active) in [28], 2000 nM (active) in assay [29], > 100000 nM (inactive) in assay [30] and 1260 nM (active) in [19].
